Experimental data as given in article PMC12114375, “Discovery of Hydrazineyl Amide Derivative of Pseudolaric Acid B for Reprogramming Tumor-Associated Macrophages Against Tumor Growth” (Molecules, 2025).

Experiments:
[1] = test system: ARG1, NOS2, CD206 and MHC II mRNA expression in BMDMs; experiment: qRT-PCR of ARG1, NOS2, CD206, MHC II in BMDMs; type: cell-based, mouse; details: BMDMs stimulated with IL-4/IL-13, different concentrations, 12 h
Method: (§1) We also extended the test to primary murine macrophages derived from bone marrow (BMDMs), which were cultured in vitro with recombinant mouse M-CSF for 6 days. The BMDMs were then stimulated with IL-4/IL-13, leading to their transformation into M2-like pro-tumoral macrophages. This transformation was characterized by an increase in both ARG1 and CD206 expression and a decrease in both NOS2 and MHC II expression. […] Subsequently, we assessed the capacity of compound 12 to inhibit the M2-like polarization of macrophages using CSF-1-differentiated mouse BMDMs. These cells were treated with IL-4 and IL-13 for 48 h, and the expression levels of CD206, an M2-type marker, and CD86, an M1-type marker, were analyzed via flow cytometry. […]
Figure 2 Compound 12 inhibits the M2-like polarized phenotype of macrophages. […] The expression levels of the markers CD206 and CD86 on induced macrophages were determined by flow cytometry, and the mean fluorescence intensity (MFI) was analyzed with FlowJo (C), or the cells were lysed and immunoblotted to detect the indicated proteins (D). […] Data are represented as means ± SD. ^### p < 0.001 vs. non-stimulated control group, * p < 0.05, ** p < 0.01, *** p < 0.001 vs. stimulated control group. p-values were determined using one-way ANOVA.

[2] = test system: M2-like polarization of BMDMs (CD206, CD86); experiment: Macrophage phenotype analysis by flow cytometry (CD206, CD86) in BMDMs; type: cell-based, mouse; details: CSF-1-differentiated BMDMs, IL-4 and IL-13, 48 h, different concentrations
Method: as §1
BMDMs were collected and stained with a fluorescent antibody or the matching isotype controls for 30 min at room temperature and then tested using a BD CytoFLEX LX (Beckman, CA, USA). […] Data were analyzed using FlowJo10.4 software.
Figure 2 Compound 12 inhibits the M2-like polarized phenotype of macrophages. […] The expression levels of the markers CD206 and CD86 on induced macrophages were determined by flow cytometry, and the mean fluorescence intensity (MFI) was analyzed with FlowJo (C), or the cells were lysed and immunoblotted to detect the indicated proteins (D). […]

COC(=O)C1=CC[C@@]23CC[C@@H]([C@@](C)(/C=C/C=C(\C)C(=O)NNCCO)OC2=O)[C@@]3(OC(C)=O)CC1 [compound 12, Methyl(3R,4S,4aS,9aR)-4a-acetoxy-3-((1E,3E)-5-(2-(2-hydroxyethyl)hydrazineyl)-4-methyl-5-oxopenta-1,3-dien-1-yl)-3-methyl-1-oxo-3,4,4a,5,6,9-hexahydro-1H-4,9a-ethanocyclohepta[c]pyran-7-carboxylate]
IL-4/IL-13-induced increase in ARG1 and CD206 and decrease in NOS2 and MHC II expression [1]: significantly reversed these trends
CD86 expression (MFI, flow cytometry) [2]: increase in CD86 expression
CD206 expression (MFI, flow cytometry) [2]: decrease in CD206 expression
